# Assay results as given in paper PMC10432207 (Heliyon, 2023).
# Target: Hyalomma scupense acetylcholinesterase (AChE)
# Assay: Ellman assay, absorbance at […] nm
# Format: biochemical
# Details: acetylthiocholine iodide, DTNB, 10 min, 37 °C
SMILES,IC50 [µg/mL],IC50 (positive control) [µg/mL]
C=CCc1ccc(O)c(OC)c1 [eugenol],178,
COc1ccc2c3c1O[C@H]1C[C@@H](O)C=C[C@@]31CCN(C)C2 [galantamine],,97
